{
  "source": "patent US12704520B2",
  "about": "“Melanogenesis detection method using FAM86A” (Research & Business Foundation Sungkyunkwan University, priority 2019, dated 2026)",
  "key": {"[1]": {"tested_on": "B16F10 cells", "test": "Melanin content assay after FAM86A knockdown and α-MSH treatment", "assay_type": "cell-based, mouse", "conditions": "FAM86A knockdown plus α-MSH 100 nM, 48 hours, absorbance 405 nm", "protocol": "A melanocyte stimulating hormone (α-MSH), which is a melanin synthesis promoting hormone, was used to induce melanogenesis in melanocytes.\nThe B16F10 cells cultured in Example 1 were seeded in 6-well plates at a density of 5×10^4 cells per well, grown for 24 hours, and FAM86A shRNA represented by SEQ ID NO: 17 in Table 1 was used for knockdown of the FAM86A gene. The cells were treated with α-MSH to be 100 nM. The resulting cells were cultured in an incubator under conditions of 37° C. and 5% CO2 for 48 hours, the medium was removed, and a cell lysis buffer was treated at 200 μL per well to lyse the cells, followed by centrifugation at 4° C. and 12,000 rpm for 5 minutes and removal of a supernatant. The resulting pellet was treated with 100 μL of a 10% sodium dodecyl sulfate-1M NaOH solution and heated for 30 minutes at 60° C. Afterward, the heated solution was maintained at room temperature to cool to 25° C., absorbance at 405 nm was measured, and the results are shown in FIG. 12. Here, an amount of melanin production was calculated based on 100% of the amount of melanin in cells not treated with α-MSH."}, "[2]": {"tested_on": "B16F10 cells", "test": "Melanin secretion assay after FAM86A knockdown and α-MSH treatment", "assay_type": "cell-based, mouse", "conditions": "FAM86A knockdown plus α-MSH 100 nM, 48 hours, absorbance 475 nm", "protocol": "The melanin synthesis promoting hormone α-MSH was used to induce melanogenesis in melanocytes.\nThe B16F10 cells cultured in Example 1 were seeded in a 6-well plate at 5×10^4 cells/well and cultured for 24 hours, FAM86A (family with sequence similarity 86, member A) shRNA represented by SEQ ID NO: 17 was used for knockdown of the FAM86A gene, and then the cells were treated with α-MSH at 100 nM. The resulting cells were cultured in an incubator under conditions of 37° C. and 5% CO2 for 48 hours, and 800 μL of the cell culture fluid was transferred to a fresh tube, and centrifuged at 4° C. and 12,000 rpm for 5 minutes to obtain a supernatant. 100 μL of the resulting supernatant was dispensed into a 96-well plate, and subjected to absorbance measurement at 475 nm. Here, an amount of melanin production was calculated based on 100% of the amount of melanin in cells not treated with α-MSH."}},
  "data": [
    {"substance": "SEQ ID NO: 17: FAM86 shRNA (Mus musculus, NM_027446.2), pLKO.1 vector, target sequence SEQ ID NO: 27; used in the examples (DNA CCGGGTCTATGTAGCCTATACTATCCTCGAGGATAGTATAGGCTACATAGACTTTTTG)", "values": [
      {"measurement": "amount of melanin (production)", "setting": "[1]", "result": "increased"},
      {"measurement": "secretion amount of melanin", "setting": "[2]", "result": "increased"}
    ]}
  ]
}
